Where only a bound is given, the exact number is not on record here.

T1 sequence (P41279 30-398): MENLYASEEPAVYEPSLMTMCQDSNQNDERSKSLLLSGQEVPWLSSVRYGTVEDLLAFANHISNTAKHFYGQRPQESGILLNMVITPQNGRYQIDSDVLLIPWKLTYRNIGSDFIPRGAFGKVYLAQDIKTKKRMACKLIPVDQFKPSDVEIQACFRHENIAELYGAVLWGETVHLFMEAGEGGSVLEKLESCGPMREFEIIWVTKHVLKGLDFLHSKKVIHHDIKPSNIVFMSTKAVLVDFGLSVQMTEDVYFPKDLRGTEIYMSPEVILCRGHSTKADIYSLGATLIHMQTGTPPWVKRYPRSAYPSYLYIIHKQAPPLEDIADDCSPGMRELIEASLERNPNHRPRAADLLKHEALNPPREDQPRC

The assay has as its target T1, human Cot/Tpl2 kinase (Homo sapiens, UniProt P41279).
T1 construct: human Cot/Tpl2 kinase construct encoding residues 30-398; 6His (N); made in house; host or cells: Sf9 insect cells, baculovirus system (BD Biosciences)
Put plainly: Tpl2/Cot kinase assay: GST-MEK1 phosphorylation detected by ELISA (DELFIA Eu). Type of assay: biochemical. Conditions: Table 2; Tpl2/Cot kinase, GST-MEK1 substrate, 50 uM ATP. The procedure, abridged: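 Substrate phosphorylation (GST-MEK1 Ser217/221) quantified by DELFIA europium ELISA, yielding IC50 values. Reaction: 1 h at 30° C, pH 7.2 MOPS buffer, 50 uM ATP, 35 nM GST-MEK1, 0.4 nM monomeric His-Tpl2 purified from Sf9 cells, compounds at 1% final DMSO; stopped with EDTA.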
(In general: An ELISA detects its analyte on a solid surface through an enzyme-linked reagent.)
On to `N#Cc1cnc2c(Br)cc(NCc3cn(CC4CCNCC4)nn3)cc2c1Nc1ccc(F)c(Cl)c1` [Example 496], for which the 50% inhibitory concentration (IC50) (in general, the concentration that inhibits the measured activity by half) stood at 47 nM.

`N#Cc1cnc2c(Br)cc(NCc3cn(CC(F)(F)F)nn3)cc2c1Nc1ccc(F)c(Cl)c1` [Example 498]: the half-maximal inhibitory concentration (IC50) was found to be 100 nM.

As to `CN1CCC(Cn2cc(CNc3cc(Br)c4ncc(C#N)c(Nc5ccc(F)c(Cl)c5)c4c3)nn2)CC1` [Example 499], the IC50 is 12 nM.

As for `CN(CCn1cc(CNc2cc(Br)c3ncc(C#N)c(Nc4ccc(F)c(Cl)c4)c3c2)nn1)C(=O)OC(C)(C)C` [Example 500], the 50% inhibitory concentration (IC50) amounted to 67 nM.

Consider `CN(CCn1cc(CN(Cc2cn(CCN(C)C(=O)OC(C)(C)C)nn2)c2cc(Br)c3ncc(C#N)c(Nc4ccc(F)c(Cl)c4)c3c2)nn1)C(=O)OC(C)(C)C` [Example 501], for which half-maximal inhibition (IC50) required 4700 nM.

Regarding `CN(CCn1cc(CNc2cc(Cl)c3ncc(C#N)c(Nc4ccc(F)c(Cl)c4)c3c2)nn1)C(=O)OC(C)(C)C` [Example 502], the half-inhibitory concentration (IC50) stood at 48 nM.

`CC(C)(C)OC(=O)N1CCC(CCn2cc(CNc3cc(Br)c4ncc(C#N)c(Nc5ccc(F)c(Cl)c5)c4c3)nn2)CC1` [Example 503]: the IC50 is 130 nM.

Consider `CC(C)(C)OC(=O)N1CCC(CCn2cc(CNc3cc(Cl)c4ncc(C#N)c(Nc5ccc(F)c(Cl)c5)c4c3)nn2)CC1` [Example 504], for which the half-maximal inhibitory concentration (IC50) is 75 nM.

Molecule `CN1CCC(Cn2cc(CN(C)c3cc(Br)c4ncc(C#N)c(Nc5ccc(F)c(Cl)c5)c4c3)nn2)CC1` [Example 505] yielded an IC50 of 290 nM.

Take `CN1CCC(n2cc(CN(C)c3cc(Br)c4ncc(C#N)c(Nc5ccc(F)c(Cl)c5)c4c3)nn2)CC1` [Example 506]: the IC50 worked out at 22 nM.

As for `COCCCc1nc[nH]c1CNc1cc(Br)c2ncc(C#N)c(Nc3ccc(F)c(Cl)c3)c2c1` [Example 507], the half-maximal inhibitory concentration (IC50) was found to be 62.1 nM.

As for `CSCCn1cc(CNc2cc(Br)c3ncc(C#N)c(Nc4ccc(F)c(Cl)c4)c3c2)nn1` [Example 508], the concentration for half-maximal inhibition (IC50) worked out at 82 nM.

`CC(C)(C)OC(=O)N1CCC(CCn2cc(CN(Cc3cn(CCC4CCN(C(=O)OC(C)(C)C)CC4)nn3)c3cc(Br)c4ncc(C#N)c(Nc5ccc(F)c(Cl)c5)c4c3)nn2)CC1` [Example 509] came in with an IC50 above 3000 nM.

`N#Cc1cnc2c(Br)cc(NCc3cn(CCO)nn3)cc2c1Nc1ccc(F)c(Cl)c1` [Example 510] returned a half-inhibitory concentration (IC50) of 28 nM.

For `CS(=O)(=O)CCn1cc(CNc2cc(Br)c3ncc(C#N)c(Nc4ccc(F)c(Cl)c4)c3c2)nn1` [Example 511], the IC50 is 91 nM.

For `CNCCn1cc(CNc2cc(Br)c3ncc(C#N)c(Nc4ccc(F)c(Cl)c4)c3c2)nn1` [Example 512], it took 38 nM to reach half-maximal inhibition (IC50).

Take `CNCCn1cc(CNc2cc(Cl)c3ncc(C#N)c(Nc4ccc(F)c(Cl)c4)c3c2)nn1` [Example 513]: the 50% inhibitory concentration (IC50) came out at 29 nM.

`CN(C)CCCn1cc(CNc2cc(Cl)c3ncc(C#N)c(Nc4ccc(F)c(Cl)c4)c3c2)nn1` [Example 514] returned an IC50 of 39 nM.

On to `N#Cc1cnc2c(Cl)cc(NCc3cn(CCN4CCCC4)nn3)cc2c1Nc1ccc(F)c(Cl)c1` [Example 515], for which the half-maximal inhibitory concentration (IC50) worked out at 40 nM.

Molecule `N#Cc1cnc2c(Br)cc(NCc3cn(CCC4CCNCC4)nn3)cc2c1Nc1ccc(F)c(Cl)c1` [Example 517] displayed an IC50 of 90 nM.

The molecule `CN1CCC(CCn2cc(CNc3cc(Br)c4ncc(C#N)c(Nc5ccc(F)c(Cl)c5)c4c3)nn2)CC1` [Example 520] gave an IC50 of 44 nM.

Molecule `CN1CCC(CCn2cc(CNc3cc(Cl)c4ncc(C#N)c(Nc5ccc(F)c(Cl)c5)c4c3)nn2)CC1` [Example 521] yielded a half-inhibitory concentration (IC50) of 38 nM.

For the molecule `COCCn1cc(CNc2cc(Br)c3ncc(C#N)c(Nc4ccc(F)c(Cl)c4)c3c2)nn1` [Example 522], the IC50 is 18 nM.

In the case of `N#Cc1cnc2c(Br)cc(NCc3cn(CCCO)nn3)cc2c1Nc1ccc(F)c(Cl)c1` [Example 523], half-maximal inhibition (IC50) required 18 nM.

`N#Cc1cnc2c(Br)cc(NCc3cn(CCS(=O)(=O)C4CCCC4)nn3)cc2c1Nc1ccc(F)c(Cl)c1` [Example 524]: the concentration for half-maximal inhibition (IC50) is 53 nM.

The values above are taken from patent US20060264460A1 (Wyeth, priority 2005, published 2006).
